Converted amounts (≈) assume the structure as drawn.
What was measured:
Escherichia coli [1] = assay: Antimicrobial activity against Escherichia coli NEB 5-alpha harboring plasmid WH1266 by Etest; format: functional
Escherichia coli [2] = assay: Antimicrobial activity against Escherichia coli NEB 5-alpha harboring beta-lactamase OXA-164 by Etest; format: functional
Escherichia coli [3] = assay: Antimicrobial activity against Escherichia coli NEB 5-alpha harboring beta-lactamase OXA-58 by Etest; format: functional
Acinetobacter baumannii [4] = assay: Antimicrobial activity against Acinetobacter baumannii ATCC 19606 harboring plasmid WH1266 by Etest; format: functional; settings: ATCC 19606 = CIP 70.34 = JCM 6841
Acinetobacter baumannii [5] = assay: Antimicrobial activity against Acinetobacter baumannii ATCC 19606 harboring beta-lactamase OXA-164 by Etest; format: functional; settings: ATCC 19606 = CIP 70.34 = JCM 6841
Acinetobacter baumannii [6] = assay: Antimicrobial activity against Acinetobacter baumannii ATCC 19606 harboring beta-lactamase OXA-58 by Etest; format: functional; settings: ATCC 19606 = CIP 70.34 = JCM 6841
Acinetobacter baumannii [7] = assay: Antimicrobial activity against Acinetobacter baumannii ATCC 17978 harboring plasmid WH1266 by Etest; format: functional
Acinetobacter baumannii [8] = assay: Antimicrobial activity against Acinetobacter baumannii ATCC 17978 harboring beta-lactamase OXA-164 by Etest; format: functional
Acinetobacter baumannii [9] = assay: Antimicrobial activity against Acinetobacter baumannii ATCC 17978 harboring beta-lactamase OXA-58 by Etest; format: functional
Acinetobacter baumannii [10] = assay: Antimicrobial activity against Acinetobacter baumannii isolate J expressing beta-lactamase OXA-58 isolated from bedsore by Etest
Acinetobacter baumannii [11] = assay: Antimicrobial activity against Acinetobacter baumannii isolate J expressing beta-lactamase OXA-58 isolated from bedsore by vitek 2 system
Acinetobacter baumannii [12] = assay: Antimicrobial activity against Acinetobacter baumannii isolate F expressing beta-lactamase OXA-164 isolated from tracheostoma of patient by Etest
Acinetobacter baumannii [13] = assay: Antimicrobial activity against Acinetobacter baumannii isolate K expressing beta-lactamase OXA-58 isolated from blood culture of patient by Etest
Acinetobacter baumannii [14] = assay: Antimicrobial activity against Acinetobacter baumannii isolate G expressing beta-lactamase OXA-58 isolated from tracheal secretion of patient by Etest
Acinetobacter baumannii [15] = assay: Antimicrobial activity against Acinetobacter baumannii isolate H expressing beta-lactamase OXA-58 isolated from tracheal secretion of patient by Etest
Acinetobacter baumannii [16] = assay: Antimicrobial activity against Acinetobacter baumannii isolate I expressing beta-lactamase OXA-58 isolated from tracheal secretion of patient by Etest
Acinetobacter baumannii [17] = assay: Antimicrobial activity against Acinetobacter baumannii isolate L expressing beta-lactamase OXA-58 isolated from tracheal secretion of patient by Etest
Acinetobacter baumannii [18] = assay: Antimicrobial activity against Acinetobacter baumannii isolate M expressing beta-lactamase OXA-58 isolated from tracheal secretion of patient by Etest
Acinetobacter baumannii [19] = assay: Antimicrobial activity against Acinetobacter baumannii isolate A expressing beta-lactamase OXA-164 isolated from tracheal secretion of patient by Etest
Acinetobacter baumannii [20] = assay: Antimicrobial activity against Acinetobacter baumannii isolate B expressing beta-lactamase OXA-164 isolated from tracheal secretion of patient by Etest
Acinetobacter baumannii [21] = assay: Antimicrobial activity against Acinetobacter baumannii isolate C expressing beta-lactamase OXA-164 isolated from tracheal secretion of patient by Etest
Acinetobacter baumannii [22] = assay: Antimicrobial activity against Acinetobacter baumannii isolate D expressing beta-lactamase OXA-164 isolated from tracheal secretion of patient by Etest
Acinetobacter baumannii [23] = assay: Antimicrobial activity against Acinetobacter baumannii isolate E expressing beta-lactamase OXA-164 isolated from tracheal secretion of patient by Etest
Acinetobacter baumannii [24] = assay: Antimicrobial activity against Acinetobacter baumannii isolate F expressing beta-lactamase OXA-164 isolated from tracheostoma of patient by vitek 2 system
Acinetobacter baumannii [25] = assay: Antimicrobial activity against Acinetobacter baumannii isolate K expressing beta-lactamase OXA-58 isolated from blood culture of patient by vitek 2 system
Acinetobacter baumannii [26] = assay: Antimicrobial activity against Acinetobacter baumannii isolate G expressing beta-lactamase OXA-58 isolated from tracheal secretion of patient by vitek 2 system
Acinetobacter baumannii [27] = assay: Antimicrobial activity against Acinetobacter baumannii isolate H expressing beta-lactamase OXA-58 isolated from tracheal secretion of patient by vitek 2 system
Acinetobacter baumannii [28] = assay: Antimicrobial activity against Acinetobacter baumannii isolate I expressing beta-lactamase OXA-58 isolated from tracheal secretion of patient by vitek 2 system
Acinetobacter baumannii [29] = assay: Antimicrobial activity against Acinetobacter baumannii isolate L expressing beta-lactamase OXA-58 isolated from tracheal secretion of patient by vitek 2 system
Acinetobacter baumannii [30] = assay: Antimicrobial activity against Acinetobacter baumannii isolate M expressing beta-lactamase OXA-58 isolated from tracheal secretion of patient by vitek 2 system
Acinetobacter baumannii [31] = assay: Antimicrobial activity against Acinetobacter baumannii isolate A expressing beta-lactamase OXA-164 isolated from tracheal secretion of patient by vitek 2 system
Acinetobacter baumannii [32] = assay: Antimicrobial activity against Acinetobacter baumannii isolate B expressing beta-lactamase OXA-164 isolated from tracheal secretion of patient by vitek 2 system
Acinetobacter baumannii [33] = assay: Antimicrobial activity against Acinetobacter baumannii isolate C expressing beta-lactamase OXA-164 isolated from tracheal secretion of patient by vitek 2 system
Acinetobacter baumannii [34] = assay: Antimicrobial activity against Acinetobacter baumannii isolate D expressing beta-lactamase OXA-164 isolated from tracheal secretion of patient by vitek 2 system
Acinetobacter baumannii [35] = assay: Antimicrobial activity against Acinetobacter baumannii isolate E expressing beta-lactamase OXA-164 isolated from tracheal secretion of patient by vitek 2 system

Compound: C[C@@H](O)[C@H]1C(=O)N2C(C(=O)O)=C(S[C@@H]3CN[C@H](C(=O)N(C)C)C3)[C@H](C)[C@H]12 [MEROPENEM]
- MIC (Escherichia coli [1]): 0.012 µg/mL (≈ 0.0313 µM)
- MIC (Escherichia coli [2]): 0.032 µg/mL (≈ 0.0834 µM)
- MIC (Escherichia coli [3]): 0.032 µg/mL (≈ 0.0834 µM)
- MIC (Acinetobacter baumannii [4]): 0.19 µg/mL (≈ 0.495 µM)
- MIC (Acinetobacter baumannii [5]): 32 µg/mL (≈ 83.4 µM)
- MIC (Acinetobacter baumannii [6]): > 32 µg/mL
- MIC (Acinetobacter baumannii [7]): 0.25 µg/mL (≈ 0.652 µM)
- MIC (Acinetobacter baumannii [8]): > 32 µg/mL
- MIC (Acinetobacter baumannii [9]): > 32 µg/mL
- MIC (Acinetobacter baumannii [10]): ≥ 64 µg/mL
- MIC (Acinetobacter baumannii [11]): 8 µg/mL (≈ 20.9 µM)
- MIC (Acinetobacter baumannii [12]): 16 µg/mL (≈ 41.7 µM)
- MIC (Acinetobacter baumannii [13]): ≥ 64 µg/mL
- MIC (Acinetobacter baumannii [14]): ≥ 64 µg/mL
- MIC (Acinetobacter baumannii [15]): ≥ 64 µg/mL
- MIC (Acinetobacter baumannii [16]): ≥ 64 µg/mL
- MIC (Acinetobacter baumannii [17]): ≥ 64 µg/mL
- MIC (Acinetobacter baumannii [18]): ≥ 64 µg/mL
- MIC (Acinetobacter baumannii [19]): 32 µg/mL (≈ 83.4 µM)
- MIC (Acinetobacter baumannii [20]): 32 µg/mL (≈ 83.4 µM)
- MIC (Acinetobacter baumannii [21]): 8 µg/mL (≈ 20.9 µM)
- MIC (Acinetobacter baumannii [22]): 32 µg/mL (≈ 83.4 µM)
- MIC (Acinetobacter baumannii [23]): 32 µg/mL (≈ 83.4 µM)
- MIC (Acinetobacter baumannii [24]): 4 µg/mL (≈ 10.4 µM)
- MIC (Acinetobacter baumannii [25]): 8 µg/mL (≈ 20.9 µM)
- MIC (Acinetobacter baumannii [26]): ≥ 16 µg/mL
- MIC (Acinetobacter baumannii [27]): 8 µg/mL (≈ 20.9 µM)
- MIC (Acinetobacter baumannii [28]): 8 µg/mL (≈ 20.9 µM)
- MIC (Acinetobacter baumannii [29]): ≥ 16 µg/mL
- MIC (Acinetobacter baumannii [30]): 8 µg/mL (≈ 20.9 µM)
- MIC (Acinetobacter baumannii [31]): 2 µg/mL (≈ 5.22 µM)
- MIC (Acinetobacter baumannii [32]): 4 µg/mL (≈ 10.4 µM)
- MIC (Acinetobacter baumannii [33]): 8 µg/mL (≈ 20.9 µM)
- MIC (Acinetobacter baumannii [34]): 8 µg/mL (≈ 20.9 µM)
- MIC (Acinetobacter baumannii [35]): 8 µg/mL (≈ 20.9 µM)

Compound: NC[C@H]1O[C@H](O[C@H]2[C@H](O)[C@@H](O[C@H]3O[C@H](CO)[C@@H](O)[C@H](N)[C@H]3O)[C@H](N)C[C@@H]2N)[C@H](N)C[C@@H]1O [TOBRAMYCIN]
- MIC (Acinetobacter baumannii [10]): 16 µg/mL (≈ 34.2 µM)
- MIC (Acinetobacter baumannii [11]): 8 µg/mL (≈ 17.1 µM)
- MIC (Acinetobacter baumannii [12]): 2 µg/mL (≈ 4.28 µM)
- MIC (Acinetobacter baumannii [13]): 16 µg/mL (≈ 34.2 µM)
- MIC (Acinetobacter baumannii [14]): 4 µg/mL (≈ 8.56 µM)
- MIC (Acinetobacter baumannii [15]): 4 µg/mL (≈ 8.56 µM)
- MIC (Acinetobacter baumannii [16]): 4 µg/mL (≈ 8.56 µM)
- MIC (Acinetobacter baumannii [17]): 4 µg/mL (≈ 8.56 µM)
- MIC (Acinetobacter baumannii [18]): 4 µg/mL (≈ 8.56 µM)
- MIC (Acinetobacter baumannii [19]): 2 µg/mL (≈ 4.28 µM)
- MIC (Acinetobacter baumannii [20]): 4 µg/mL (≈ 8.56 µM)
- MIC (Acinetobacter baumannii [21]): 2 µg/mL (≈ 4.28 µM)
- MIC (Acinetobacter baumannii [22]): 2 µg/mL (≈ 4.28 µM)
- MIC (Acinetobacter baumannii [23]): 2 µg/mL (≈ 4.28 µM)
- MIC (Acinetobacter baumannii [24]): ≤ 1 µg/mL
- MIC (Acinetobacter baumannii [25]): 8 µg/mL (≈ 17.1 µM)
- MIC (Acinetobacter baumannii [26]): ≤ 1 µg/mL
- MIC (Acinetobacter baumannii [27]): ≤ 1 µg/mL
- MIC (Acinetobacter baumannii [28]): ≤ 1 µg/mL
- MIC (Acinetobacter baumannii [29]): ≤ 1 µg/mL
- MIC (Acinetobacter baumannii [30]): ≤ 1 µg/mL
- MIC (Acinetobacter baumannii [31]): ≤ 1 µg/mL
- MIC (Acinetobacter baumannii [32]): ≤ 1 µg/mL
- MIC (Acinetobacter baumannii [33]): ≤ 1 µg/mL
- MIC (Acinetobacter baumannii [34]): ≤ 1 µg/mL
- MIC (Acinetobacter baumannii [35]): ≤ 1 µg/mL

Compound: CN(C)c1cc(NC(=O)CNC(C)(C)C)c(O)c2c1C[C@H]1C[C@H]3[C@H](N(C)C)C(O)=C(C(N)=O)C(=O)[C@@]3(O)C(O)=C1C2=O [TIGECYCLINE]
- MIC (Acinetobacter baumannii [10]): 16 µg/mL (≈ 27.3 µM)
- MIC (Acinetobacter baumannii [11]): ≥ 8 µg/mL
- MIC (Acinetobacter baumannii [12]): 4 µg/mL (≈ 6.83 µM)
- MIC (Acinetobacter baumannii [13]): 16 µg/mL (≈ 27.3 µM)
- MIC (Acinetobacter baumannii [14]): 16 µg/mL (≈ 27.3 µM)
- MIC (Acinetobacter baumannii [15]): 16 µg/mL (≈ 27.3 µM)
- MIC (Acinetobacter baumannii [16]): 16 µg/mL (≈ 27.3 µM)
- MIC (Acinetobacter baumannii [17]): 16 µg/mL (≈ 27.3 µM)
- MIC (Acinetobacter baumannii [18]): 16 µg/mL (≈ 27.3 µM)
- MIC (Acinetobacter baumannii [19]): 4 µg/mL (≈ 6.83 µM)
- MIC (Acinetobacter baumannii [20]): 4 µg/mL (≈ 6.83 µM)
- MIC (Acinetobacter baumannii [21]): 4 µg/mL (≈ 6.83 µM)
- MIC (Acinetobacter baumannii [22]): 4 µg/mL (≈ 6.83 µM)
- MIC (Acinetobacter baumannii [23]): 4 µg/mL (≈ 6.83 µM)
- MIC (Acinetobacter baumannii [24]): 2 µg/mL (≈ 3.41 µM)
- MIC (Acinetobacter baumannii [25]): ≥ 8 µg/mL
- MIC (Acinetobacter baumannii [26]): ≥ 8 µg/mL
- MIC (Acinetobacter baumannii [27]): ≥ 8 µg/mL
- MIC (Acinetobacter baumannii [28]): ≥ 8 µg/mL
- MIC (Acinetobacter baumannii [29]): ≥ 8 µg/mL
- MIC (Acinetobacter baumannii [30]): ≥ 8 µg/mL
- MIC (Acinetobacter baumannii [31]): 2 µg/mL (≈ 3.41 µM)
- MIC (Acinetobacter baumannii [32]): 2 µg/mL (≈ 3.41 µM)
- MIC (Acinetobacter baumannii [33]): 2 µg/mL (≈ 3.41 µM)
- MIC (Acinetobacter baumannii [34]): 2 µg/mL (≈ 3.41 µM)
- MIC (Acinetobacter baumannii [35]): 2 µg/mL (≈ 3.41 µM)

— ChEMBL document CHEMBL1687815, “In vivo selection of a missense mutation in adeR and conversion of the novel blaOXA-164 gene into blaOXA-58 in carbapenem-resistant Acinetobacter baumannii isolates from a hospitalized patient” (2010)
